How the values were obtained:
ΔF508-CFTR [1] = biological target: T1, ΔF508-CFTR (Homo sapiens, UniProt P13569, DEL508-508); assay: CFTR cell surface levels using HRP-tagged ΔF508-CFTR expressing CFBE cells, intrinsic corrector capacity; type: cell-based; set-up: % Activation: concentration or dose not given beside the values; conditions: HRP-tagged ΔF508-CFTR expressing CFBE41o- cells, compound alone (intrinsic corrector capacity), 20 hours at 33° C.; for EC50: read-out: EC50
T1 construct: host or cells: CFBE41o-, doxycycline-inducible
T1 sequence (P13569 with tags, fused parts or gaps DEL508-508): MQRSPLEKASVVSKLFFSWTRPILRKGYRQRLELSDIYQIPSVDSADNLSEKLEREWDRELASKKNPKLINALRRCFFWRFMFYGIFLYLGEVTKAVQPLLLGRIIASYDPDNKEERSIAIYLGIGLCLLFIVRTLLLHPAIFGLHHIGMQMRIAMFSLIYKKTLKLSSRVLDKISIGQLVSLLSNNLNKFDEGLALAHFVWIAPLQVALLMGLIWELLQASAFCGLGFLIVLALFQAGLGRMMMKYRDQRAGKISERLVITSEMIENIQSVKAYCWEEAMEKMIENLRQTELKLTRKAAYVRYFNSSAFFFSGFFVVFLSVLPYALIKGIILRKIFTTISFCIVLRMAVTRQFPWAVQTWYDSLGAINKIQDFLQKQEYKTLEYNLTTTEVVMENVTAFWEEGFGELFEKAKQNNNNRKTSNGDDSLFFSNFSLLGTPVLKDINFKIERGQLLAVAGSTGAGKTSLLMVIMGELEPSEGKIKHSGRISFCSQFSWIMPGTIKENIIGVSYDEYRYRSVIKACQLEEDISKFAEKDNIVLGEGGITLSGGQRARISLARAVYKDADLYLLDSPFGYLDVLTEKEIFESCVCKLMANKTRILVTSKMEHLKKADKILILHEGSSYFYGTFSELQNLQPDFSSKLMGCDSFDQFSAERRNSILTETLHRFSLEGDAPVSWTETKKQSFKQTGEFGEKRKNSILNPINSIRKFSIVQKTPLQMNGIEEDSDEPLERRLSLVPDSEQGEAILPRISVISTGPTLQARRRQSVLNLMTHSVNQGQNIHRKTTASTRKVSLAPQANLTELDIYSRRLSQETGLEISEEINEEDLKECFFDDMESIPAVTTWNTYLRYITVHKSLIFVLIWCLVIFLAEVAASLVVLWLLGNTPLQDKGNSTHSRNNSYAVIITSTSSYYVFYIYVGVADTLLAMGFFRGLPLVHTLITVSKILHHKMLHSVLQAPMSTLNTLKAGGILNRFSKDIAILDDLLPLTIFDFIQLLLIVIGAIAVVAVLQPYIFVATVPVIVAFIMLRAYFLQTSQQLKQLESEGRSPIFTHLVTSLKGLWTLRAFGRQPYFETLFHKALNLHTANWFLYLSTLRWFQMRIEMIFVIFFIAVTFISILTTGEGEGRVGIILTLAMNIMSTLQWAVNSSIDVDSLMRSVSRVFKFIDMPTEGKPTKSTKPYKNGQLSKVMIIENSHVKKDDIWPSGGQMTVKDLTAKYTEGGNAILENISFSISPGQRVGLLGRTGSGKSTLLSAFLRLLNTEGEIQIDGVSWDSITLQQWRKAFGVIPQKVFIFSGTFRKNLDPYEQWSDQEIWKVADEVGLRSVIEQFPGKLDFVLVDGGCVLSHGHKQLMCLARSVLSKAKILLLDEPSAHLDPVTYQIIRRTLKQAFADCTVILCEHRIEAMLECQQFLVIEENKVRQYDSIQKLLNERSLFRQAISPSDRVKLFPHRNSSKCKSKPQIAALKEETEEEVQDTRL
Excerpt: Measuring CFTR Cell Surface Levels Using HRP-Tagged ΔF508-CFTR Expressing CFBE Cells
The HRP-tagged ΔF508-CFTR cell assay measures the expression of CFTR-ΔF508 at the plasma membrane. CFTR-ΔF508 has a folding defect leading to absence of protein at the plasma membrane. This assay is used to evaluate the capacity of compounds to increase the expression of CFTR-ΔF508 at the plasma membrane. The CFTR-ΔF508 is tagged with HRP (horse radish peroxidase enzyme) within the ECL4 (Extracellular loop 4) of CFTR (Phuan, P.-W. et al. Synergy-based small-molecule screen using a human lung epithelial cell line yields ΔF508-CFTR correctors that augment VX-809 maximal efficacy. Mol. Pharmacol. 86, 42-51 (2014)). When HRP-tagged ΔF508-CFTR is present at the plasma membrane, the HRP enzyme activity can be measured. The amount of CFTR-ΔF508 that can be rescued to the plasma membrane is correlated with the amount of functional enzyme that can be measured.
There are several ways to measure the capacity of compounds to rescue CFTR-ΔF508 to the plasma membrane; either compounds are evaluated on their own and the impact on plasma membrane levels is measured or compounds are evaluated in combination with a co-corrector, i.e. a compound that rescues CFTR-ΔF508 to the plasma membrane but rescue can be enhanced by addition of compounds due to a complementary mode of action.
Activity of Compounds for their Intrinsic Corrector Capacity:
For this purpose doxycycline-inducible ΔF508-CFTR-HRP expressing CFBE4lo− cells (obtained from Gergely Lukacs, McGill University) were maintained in MEM (Gibco; 31095) supplemented with 10% fetal bovine serum (Hyclone; SV30160.03) under puromycin (3 μg/mL) and G418 selection (0.2 mg/mL). For compound testing, cells were seeded at 4000 cells/well in white 384-well plates (Greiner; 781080) in 50 μL medium containing 0.5 μg/mL doxycycline and incubated for 68 hours at 37° C., 5% CO2. On day four, […] compounds diluted in PBS were added to the plates at a final DMSO concentration of 0.1%. All compound plates contained negative controls (DMSO) and positive controls ([…] corrector, 3-[(2R,4R)-4-({[1-(2,2-difluoro-1,3-benzodioxol-5-yl)cyclopropyl]carbonyl}amino)-7-methoxy-3,4-dihydro-2H-chromen-2-yl]benzoic acid). Cell plates were incubated at 33° C., 5% CO2 for 20 hours. On day five, the cells were washed five times with phosphate-buffered saline, and HRP activity was assayed by the addition of 50 μL/well of HRP substrate (SuperSignal™ West Pico Chemiluminescent Substrate, Thermo Scientific; 34080). After incubation for 15 minutes in the dark, chemiluminescence was measured using a plate reader (EnVision®, Perkin Elmer). Raw data were normalized to percentage activity values using the equation: 100×(Sample−Negative control)/(Positive control−Negative Control).

ΔF508-CFTR [2] = biological target: T1, ΔF508-CFTR; assay: CFTR cell surface levels using HRP-tagged ΔF508-CFTR expressing CFBE cells, in the presence of a co-corrector; type: cell-based; conditions: HRP-tagged ΔF508-CFTR CFBE cells, in the presence of 3 μM co-corrector; for EC50: read-out: EC50
Method in brief: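 Chemiluminescent read-out of surface HRP (15 min, dark) after PBS washes. Activity is normalized as 100×(sample−DMSO)/(3 μM co-corrector alone−DMSO).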

Compound | % Activation (ΔF508-CFTR [1]) [%] | EC50 (ΔF508-CFTR [1]) [nM] | % Activation (ΔF508-CFTR [2]) [%] | EC50 (ΔF508-CFTR [2]) [nM]
CC(C)c1nn(-c2cccc(N3CCCC3)c2)c2nc(C(=O)NS(C)(=O)=O)cc(-c3ccc(N4CCOCC4)cc3)c12 [Compound 16, N-(methanesulfonyl)-4-[4-(morpholin-4-yl)phenyl]-3-(propan-2-yl)-1-[3-(pyrrolidin-1-yl)phenyl]-1H-pyrazolo[3,4-b]pyridine-6-carboxamide] | 469.75 | 543 | 649.9 | 459
COc1ccc(-n2nc(C(C)C)c3c(-c4ccc(N(C)C)cc4)cc(C(=O)NS(C)(=O)=O)nc32)cn1 [Compound 17, 4-[4-(dimethylamino)phenyl]-N-(methanesulfonyl)-1-(6-methoxypyridin-3-yl)-3-(propan-2-yl)-1H-pyrazolo[3,4-b]pyridine-6-carboxamide] | 140.75 | 1230 | 320 | 1120
COc1ccc(-c2cc(C(=O)NS(C)(=O)=O)nc3c2c(C)nn3-c2ccc(C)c(Cl)c2)cc1 [Compound 18, 1-(3-chloro-4-methylphenyl)-N-(methanesulfonyl)-4-(4-methoxyphenyl)-3-methyl-1H-pyrazolo[3,4-b]pyridine-6-carboxamide] | 64.675 | 2270 | 217.8 | 1110
CCS(=O)(=O)NC(=O)c1cc(N2CCCCC2)c2c(C)nn(-c3ccccc3)c2n1 [Compound 19, N-(ethanesulfonyl)-3-methyl-1-phenyl-4-(piperidin-1-yl)-1H-pyrazolo[3,4-b]pyridine-6-carboxamide] | 140.85 | 2650 | 304.05 | 1630
CC(C)c1nn(-c2ccccc2)c2nc(C(=O)NS(C)(=O)=O)cc(-c3cnc(N4CCOCC4)nc3)c12 [Compound 20, N-(methanesulfonyl)-4-[2-(morpholin-4-yl)pyrimidin-5-yl]-1-phenyl-3-(propan-2-yl)-1H-pyrazolo[3,4-b]pyridine-6-carboxamide] | 210.3 | 669 | 417.5 | 546
Cc1nn(-c2ccc(F)cc2F)c2nc(C(=O)NS(C)(=O)=O)cc(-c3ccc(N4CCOCC4)cc3)c12 [Compound 21, 1-(2,4-difluorophenyl)-N-(methanesulfonyl)-3-methyl-4-[4-(morpholin-4-yl)phenyl]-1H-pyrazolo[3,4-b]pyridine-6-carboxamide] | 264.25 | 685 | 440.1 | 525
CC(C)c1nn(C2CCCCC2)c2nc(C(=O)NS(C)(=O)=O)cc(-c3ccc(N(C)C)nc3)c12 [Compound 22, 1-cyclohexyl-4-[6-(dimethylamino)pyridin-3-yl]-N-(methanesulfonyl)-3-(propan-2-yl)-1H-pyrazolo[3,4-b]pyridine-6-carboxamide] | 161.5 | 732 | 371.55 | 503
Cc1nn(-c2cc(F)cc(F)c2)c2nc(C(=O)NS(C)(=O)=O)cc(-c3ccc(N4CCOCC4)cc3)c12 [Compound 23, 1-(3,5-difluorophenyl)-N-(methanesulfonyl)-3-methyl-4-[4-(morpholin-4-yl)phenyl]-1H-pyrazolo[3,4-b]pyridine-6-carboxamide] | 287.3 | 883 | 468.85 | 573
Cc1cc(C)cc(-n2nc(C)c3c(-c4ccc(N5CCOCC5)cc4)cc(C(=O)NS(C)(=O)=O)nc32)c1 [Compound 24, 1-(3,5-dimethylphenyl)-N-(methanesulfonyl)-3-methyl-4-[4-(morpholin-4-yl)phenyl]-1H-pyrazolo[3,4-b]pyridine-6-carboxamide] | 193.75 | 888 | 380.5 | 744
Cc1nn(-c2ccc(F)c(F)c2)c2nc(C(=O)NS(C)(=O)=O)cc(-c3ccc(N4CCOCC4)cc3)c12 [Compound 25, 1-(3,4-difluorophenyl)-N-(methanesulfonyl)-3-methyl-4-[4-(morpholin-4-yl)phenyl]-1H-pyrazolo[3,4-b]pyridine-6-carboxamide] | 247.23 | 997 | 437.17 | 640
Cc1nn(-c2cccc(C(F)(F)F)c2)c2nc(C(=O)NS(C)(=O)=O)cc(-c3ccc(N(C)C)cc3)c12 [Compound 26, 4-[4-(dimethylamino)phenyl]-N-(methanesulfonyl)-3-methyl-1-[3-(trifluoromethyl)phenyl]-1H-pyrazolo[3,4-b]pyridine-6-carboxamide] | 202.25 | 1850 | 449.7 | 1550
COc1ccc(-c2cc(C(=O)NS(C)(=O)=O)nc3c2c(C)nn3-c2cccc(C)c2)cc1 [Compound 27, N-(methanesulfonyl)-4-(4-methoxyphenyl)-3-methyl-1-(3-methylphenyl)-1H-pyrazolo[3,4-b]pyridine-6-carboxamide] | 145.5 | 1220 | 365.2 | 714
CCS(=O)(=O)NC(=O)c1cc(-c2ccc(OC)cc2)c2c(C)nn(-c3cccc(C)c3)c2n1 [Compound 28, N-(ethanesulfonyl)-4-(4-methoxyphenyl)-3-methyl-1-(3-methylphenyl)-1H-pyrazolo[3,4-b]pyridine-6-carboxamide] | 149.7 | 1220 | 354.45 | 942
CC(C)c1nn(-c2cccc(N3CCOCC3)c2)c2nc(C(=O)NS(C)(=O)=O)cc(-c3cnc(N(C)C)nc3)c12 [Compound 29, 4-[2-(dimethylamino)pyrimidin-5-yl]-N-(methanesulfonyl)-1-[3-(morpholin-4-yl)phenyl]-3-(propan-2-yl)-1H-pyrazolo[3,4-b]pyridine-6-carboxamide] | 328.4 | 645 | 591.4 | 824
CC(C)c1nn(-c2cccc(N3CCOCC3)c2)c2nc(C(=O)NS(C)(=O)=O)cc(-c3ccc(N(C)C)nc3)c12 [Compound 31, 4-[6-(dimethylamino)pyridin-3-yl]-N-(methanesulfonyl)-1-[3-(morpholin-4-yl)phenyl]-3-(propan-2-yl)-1H-pyrazolo[3,4-b]pyridine-6-carboxamide] | 203.4 | 318 | 423.27 | 204
CCS(=O)(=O)NC(=O)c1cc(-c2ccc(N(C)C)nc2)c2c(C(C)C)nn(-c3cccc(N4CCOCC4)c3)c2n1 [Compound 32, 4-[6-(dimethylamino)pyridin-3-yl]-N-(ethanesulfonyl)-1-[3-(morpholin-4-yl)phenyl]-3-(propan-2-yl)-1H-pyrazolo[3,4-b]pyridine-6-carboxamide] | 277.65 | 372 | 526 | 234
Cc1nn(-c2ccccc2)c2nc(C(=O)NS(C)(=O)=O)cc(-c3ccc(N(C)C)cc3)c12 [Compound 33, 4-[4-(dimethylamino)phenyl]-N-(methanesulfonyl)-3-methyl-1-phenyl-1H-pyrazolo[3,4-b]pyridine-6-carboxamide] | 109 | 2580 | 315.6 | 471
CCS(=O)(=O)NC(=O)c1cc(-c2ccc(N3CCOCC3)nc2)c2c(C(C)C)nn(-c3ccccc3)c2n1 [Compound 35, N-(ethanesulfonyl)-4-[6-(morpholin-4-yl)pyridin-3-yl]-1-phenyl-3-(propan-2-yl)-1H-pyrazolo[3,4-b]pyridine-6-carboxamide] | 265.23 | 542 | 509.7 | 348

From patent US10259810B2, “N-sulfonylated pyrazolo[3,4-b]pyridin-6-carboxamides and method of use” (AbbVie S.à.r.l., priority 2015, dated 2019)
